Here are results for 1 compound from BindingDB's records for doi:10.7270/Q20863RR (Nmmlsc, 2010).

SMILES strings stand for the structures.

For this experiment, the target named is T1, Regulator of G-protein signaling 7 (Homo sapiens, UniProt P49802).
T1 sequence (P49802 whole entry): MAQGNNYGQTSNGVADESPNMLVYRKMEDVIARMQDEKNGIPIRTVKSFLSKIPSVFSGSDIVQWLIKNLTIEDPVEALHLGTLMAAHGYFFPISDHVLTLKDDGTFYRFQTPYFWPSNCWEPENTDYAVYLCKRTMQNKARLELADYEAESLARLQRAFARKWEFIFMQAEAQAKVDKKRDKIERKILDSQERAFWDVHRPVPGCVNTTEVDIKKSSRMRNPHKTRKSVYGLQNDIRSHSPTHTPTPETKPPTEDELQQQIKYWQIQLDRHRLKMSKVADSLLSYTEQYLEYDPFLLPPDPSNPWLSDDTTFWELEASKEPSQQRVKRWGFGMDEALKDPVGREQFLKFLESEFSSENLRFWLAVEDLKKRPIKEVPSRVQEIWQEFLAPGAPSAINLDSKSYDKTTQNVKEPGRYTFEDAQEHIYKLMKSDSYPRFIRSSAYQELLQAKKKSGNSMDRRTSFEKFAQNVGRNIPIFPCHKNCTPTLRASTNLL
Kind of experiment: RGS7-Galphao binding modulators, SAR follow-up, biochemical, multiplexed bead flow cytometry, SAR compounds (AID 2296). Background: A flow cytometer gives signals particle by particle.

The Ki is a measure of affinity in units of concentration, obtained from inhibition or displacement. A higher Ki goes with weaker binding. The compound `NS(=O)(=O)c1ccc(N=NCc2ccc(O)c(O)c2O)c([N+](=O)[O-])c1` [4-[[(E)-(2,3-dihydroxy-4-oxo-1-cyclohexa-2,5-dienylidene)methyl]hydrazo]-3-nitrobenzenesulfonamide] returned an inhibition constant (Ki) of 120 nM.
